Measurements published in paper PMC11077991, “The small molecule CBR-5884 inhibits the Candida albicans phosphatidylserine synthase” (mBio, 2024).
Values after ≈ are worked out from the molar mass of the structure shown. Like-named read-outs stand apart in the source and are kept apart here.

What was measured:
[1] = system: wild-type C. albicans strain SC5314; assay: plate assays, CFU counting and growth curves in minimal media; type: cell-based, Candida albicans; settings: for fungistatic or fungicidal effect (CFUs vs pre-incubation): 30 µM ebselen, 430 µM LOC14, 170 µM CBR-5884; for fungistatic or fungicidal effect (CFUs vs pre-incubation) / rescue of CFUs by 1 mM ethanolamine: 24 h; for rescue of CFUs by 1 mM ethanolamine: optimized drug concentrations (CBR-5884 ≥170 µM), minimal medium
Protocol: The antifungal effects of ebselen, LOC14 ,and CBR-5884 on live cells were further evaluated by plate assays and growth curves. First, we tried to determine if the inhibitory effects of these compounds were fungistatic or fungicidal. It should be highlighted that in contrast to the MIC assays, the plate assays and growth curve analyses necessitated a greater initial inoculum (OD600 of 0.05 as opposed to 0.00004) for detection. Additionally, a reduced incubation temperature of 30°C instead of 37°C was required to inhibit the hyphal formation, which, in turn, required the adjustment of compound concentrations used. For this, wild-type C. albicans strain SC5314 was grown with varying concentrations of ebselen, LOC14, and CBR-5884 in minimal media at 30°C for 24 h, along with a cho1ΔΔ strain as a control. […] To further determine the optimized inhibitory concentrations and whether the inhibition is fungistatic or fungicidal, wild-type C. abicans SC5314 was then incubated with ebselen, LOC14, and CBR-5884 in a dosage series with 10 µM increments within the inhibition range determined above, and colony forming units (CFUs) were counted after 24 h incubation.
Plate assays and growth curves were conducted in minimal media or minimal media supplemented with 1 mM ethanolamine (ETA). Wild-type SC5314 and cho1ΔΔ strains were grown in YPD overnight and washed three times with H2O before inoculation. The starting OD600 is 0.05 for both plate assays and growth curves. For plate assays, both wild-type and cho1ΔΔ strains were grown in flat-bottom 96-well plates at a final volume of 200 µL, in the presence of different compounds or DMSO as indicated at 30°C. The final DMSO concentration was maintained at 2.5% across all treatments. A Leica inverted microscope was then used to visualize growth after 24 h incubations. In the meantime, cells grown in different compounds were subjected to live cell counting. Cell cultures from flat-bottom 96-well plates after 24 h incubation were diluted 100–10,000 times before plating on the minimal media, and the total colony-forming unit (CFU) was kept within 200 for each plate. A total of six biological replicates were done in each condition.
The growth curves with LOC14 and CBR-5884 treatments were measured from 2 to 30 h with OD600 measurements every 2 h. A final concentration of 170 µM CBR-5884, 430 µM LOC14, and 5 mM serine was added into each group as indicated. To test the stability of CBR-5884, minimal medium supplemented with 170 µM CBR-5884 or equivalent DMSO was agitated for 12 h before the introduction of wildtype C. albicans SC5314 strain, and growth curves were recorded from 0 to 14 h with OD600 measurement every 2 h. To check the resistance of C. albicans in CBR-5884, SC5314 strain was grown in 170 µM CBR-5884 for 12 and 24 h before being diluted in fresh minimal medium supplemented with fresh 170 µM CBR-5884 or equivalent DMSO. The growth curves were recorded from 0 to 14 h with OD600 measurement every 2 h. The final DMSO concentration was maintained at 1.7% across all treatments.

[2] = system: wild-type C. albicans strain SC5314; assay: CLSI MIC broth microdilution; type: cell-based, Candida albicans; settings: Candida albicans
Protocol: We then tested the effects of the six compounds on live cells by determining the minimal inhibitory concentrations (MICs) of these compounds. Following the standard Clinical & Lab Standards Institute (CLSI) MIC broth microdilution methods, wild-type C. albicans strain SC5314 was grown with avasimibe, CBR-5884, tideglusib, ebselen, ML-345, and LOC14 in RPMI MOPS medium (pH 7.0) or alternatively in minimal medium or minimal medium with HEPES (pH 7.0) at 37°C for 48 h, along with a cho1ΔΔ strain as a control (Fig. 3A through C). The concentration of the compounds was varied from 0.5 to 250 µM. […] Ebselen, LOC14, and CBR-5884, on the contrary, stopped cell growth at different concentrations in all three media, with MICs ranging between 7.8 and 31.3 μM (Fig. 3A through D). […] Specific MIC values are summarized in Fig. 3D for all the compounds.
Minimum inhibitory concentration (MIC) was determined following Clinical & Lab Standards Institute (CLSI) MIC broth microdilution protocol (Licensed to Todd Reynolds, license # Ord-1138682) ([98], [99]). Briefly, stock solutions of different compounds (purchased from MedChemExpress) were prepared at a concentration of 10 mM in DMSO and subsequently diluted as required in the same solvent. Wild-type C. albicans strain SC5314, as well as four additional wild-type strains—GDH2346, 3153A, TFPY412, and TFPY2307, were cultured overnight in YPD medium at 30°C, washed with water three times, and then diluted to a concentration of 2 × 10^3 cells/mL (OD600 = 0.00008) in one of the three media [minimal medium, minimal medium buffered with 50 mM HEPES (pH 7.0) and RPMI MOPS (pH 7.0)]. The cho1ΔΔ strain was also included as a control. A volume of 100 µL from each cell suspension was dispensed into the wells of a flat-bottom 96-well plate. An additional 100 µL of corresponding medium, containing twice the final desired concentration of each drug, was added to each well, leading to a final initial inoculum of 1 × 10^3 cells/mL (OD600 = 0.00004). The final DMSO concentration was maintained at 2.5% across all treatments. Following preparation, the plates were incubated at 37°C for 48 h and photos were taken with a Bio-Rad Gel Doc XR + Imaging System.

[3] = SC5314, 48 h, pH 7, read-out: Minimal Inhibitory Concentration (MIC): MM, HEPES 7.0
[4] = SC5314, 48 h, pH 7, read-out: Minimal Inhibitory Concentration (MIC): RPMI, MOPS 7.0
[5] = SC5314, 48 h, read-out: MICs across all three media
[6] = SC5314, 48 h, read-out: Minimal Inhibitory Concentration (MIC): MM

## O=C(C1CC1)N1CCN(Cn2sc3ccccc3c2=O)CC1 [LOC14]
[1]
  fungistatic or fungicidal effect (CFUs vs pre-incubation): fungistatic effect
  rescue of CFUs by 1 mM ethanolamine: did not rescue
[1]; 430 µM LOC14, 0-30 h
  growth curve in presence or absence of ethanolamine: no cells grew
[2]; [3]
  MIC: 15.6 µM (≈ 4.95 µg/mL)
[2]; [4]
  MIC: 31.3 µM (≈ 9.94 µg/mL)
[2]; [5]
  MIC: 7.8 to 31.3 µM (≈ 2.48 to 9.94 µg/mL)
[2]; [6]
  MIC: 15.6 µM (≈ 4.95 µg/mL)

## CCOC(=O)c1sc(NC(=O)c2ccco2)c(SC#N)c1C [CBR-5884]
[1]
  fungistatic or fungicidal effect (CFUs vs pre-incubation): fungistatic effect
  rescue of CFUs by 1 mM ethanolamine: significantly higher CFUs
[1]; 170 µM CBR-5884, 1 mM ethanolamine
  effect of ethanolamine on growth rate and lag time: significantly increased the growth rate and decreased the lag time
[1]; 170 µM CBR-5884, growth curve 0-30 h
  effect of 5 mM serine on growth inhibition: serine did not help the cells recover
[1]; 170 µM CBR-5884, minimal medium, 30°C
  duration of growth delay: 12 h
[2]; [3]
  MIC: 31.3 µM (≈ 10.5 µg/mL)
[2]; [4]
  MIC: 31.3 µM (≈ 10.5 µg/mL)
[2]; [5]
  MIC: 7.8 to 31.3 µM (≈ 2.62 to 10.5 µg/mL)
[2]; [6]
  MIC: 7.8 µM (≈ 2.62 µg/mL)

## O=c1c2ccccc2[se]n1-c1ccccc1 [Ebselen]
[1]; 30 µM ebselen + 1 mM ETA
  CFU/μL after 24 h incubation with ethanolamine: 0 CFU/μL
[1]
  fungistatic or fungicidal effect (CFUs vs pre-incubation): fungicidal effect
  rescue of CFUs by 1 mM ethanolamine: did not rescue
[2]; SC5314, RPMI MOPS pH 7.0, 37°C, 48 h, read-out: Minimal Inhibitory Concentration (MIC): RPMI, MOPS 7.0
  MIC: 7.8 µM (≈ 2.14 µg/mL)
[2]; SC5314, minimal medium with 50 mM HEPES pH 7.0, 37°C, 48 h, read-out: Minimal Inhibitory Concentration (MIC): MM, HEPES 7.0
  MIC: 15.6 µM (≈ 4.28 µg/mL)
[2]; SC5314, minimal medium, 37°C, 48 h, read-out: Minimal Inhibitory Concentration (MIC): MM
  MIC: 7.8 µM (≈ 2.14 µg/mL)
[2]; SC5314, minimal medium, minimal medium HEPES, RPMI MOPS, 37°C, 48 h, read-out: MICs across all three media
  MIC: 7.8 to 31.3 µM (≈ 2.14 to 8.58 µg/mL)
